In patent US9221800B2, “Isoxazole treatments for diabetes” (The Board of Regents of the University of Texas System, priority 2011, dated 2015):

Legend:
Assay type in all cases: cell-based, mouse
[1] = test system: MIN6 cells; assay: Immunoblotting of MIN6 whole cell lysates; conditions: MIN6 pretreated with inhibitors 16 h (FIG. 4A); nifedipine in combination with the chelating agent BAPTA
Protocol: FIGS. 2[…]-1) activates insulin expression and improves β cell function in MIN6 cells. (FIG. 2A) Dose-response relationship of MIN6 cells treated with 5-80 μM Isx for 24 h or DMSO (0.08%-similar to the highest concentration of Isx). Whole cell lysates (40 μg) were subjected to immunoblotting using antibodies against BETA2NeuroD1, MafA, PDX-1, pERK1/2 (pT183/[…]), acetylated histones […] and ACH3K9 and total histone H3. (FIG. 2B) Quantitative RT-PCR of murine insulin1 and insulin2 gene expression in MIN6 cells treated with Isx for 24 h as in FIG. 2A. […] (FIG. 2D) Insulin content measured by ELISA in MIN6 cells treated with Isx for 24 or 48 h. (FIG. 2E) GSIS induced by glucose, amino acids (AA) and Exendin-4 (Ex-4) singly or in combination in MIN6 cells pretreated with Isx for 48 h. FIGS. 4[…]-1) is a HAT activator. (FIG. 4A) Immunoblots of acetylated histones in MIN6 cells pretreated with the indicated inhibitors for 16 h and then treated with vehicle or Isx. (FIGS. 4B-C) HDAC (FIG. 4B) and HAT (FIG. 4C) activities in 50 μg of nuclear extract protein from MIN6 cells treated with Isx or DMSO for 24 h. Trichostatin A (TSA; 2 μM) was added at as a positive control. HeLa nuclear extract also was included as a positive control. […] Statistical analysis was performed using Student's t test as in FIGS. 1A-E. *P<0.05; **P<0.01. (FIG. 4G) Simplified view of the actions of Isx. FIG. 6. Time course of […]-1) treatment in MIN6 cells. Immunoblotting of whole cell extracts from MIN6 cells grown for 24 h in complete DMEM containing […] and treated with 20 μM Isx for from 15 min to 24 h. The control (0 min) was treated with DMSO for 24 h. MIN6 cells were cultured in DMEM (Gibco), containing 25 mM glucose, 10% fetal bovine serum, 10 mM Hepes pH 7.4, 10.2 mM L-glutamine, […] sodium pyruvate, 2.5 mM β-mercaptoethanol, 100 U/ml penicillin and 100 μg/ml streptomycin at 37° C. in 10% CO2. Human islets were obtained from the ICR Basic Science Islet Distribution and from the University of Alabama, Birmingham Islet Resource Facility and were cultured in RPMI 1640 with 11 mM glucose for up to 1 year. The medium was changed twice weekly and the islets were subcultured when they reached 90% confluence. For Isx treatments, cells were incubated in medium containing either Isx or the equivalent volume of DMSO vehicle (0.04%). To measure GSIS, cells were placed in Krebs-Ringer bicarbonate/Hepes containing 0.1% bovine serum albumin and 2 mM glucose for 2 h, and stimulated for 15 min with 20 mM glucose, a 1× amino-acid mixture (concentrations as in DMEM), or 50 nM Exendin-4.

[2] = test system: HAT; assay: HAT activity in nuclear extracts of treated MIN6 cells; conditions: MIN6 cells expressing p300; 10 μM U0126
Protocol: (§1) The histone acetyl transferase and deacetylase activities were measured in 50 μg of nuclear protein using the HAT and HDAC activity colorimetric assay kits from Biovision Biotechnology according to manufacturer's recommendations.

[3] = test system: HDAC; assay: HDAC activity in nuclear extracts of treated MIN6 cells; conditions: 24 h treatment, TSA 2 μM positive control (FIG. 4B)
Protocol: as §1

For `O=C(NOC[C@H](O)CO)c1ccc(F)c(F)c1Nc1ccc(I)cc1F` [PD325901, reference compound], which “effect on Isx-induced acetylation of H4” value [1] is on record?
The value was “inhibited”.

What about the “effect on acetylation of H3 on lysines 9 and 14 induced by Isx” value (from here on “effect on acetylation of H3”) [1] of the same compound?
Its value is “little effect”.

For `N#CC(=C(/N)Sc1ccccc1N)/C(C#N)=C(\N)Sc1ccccc1N` [U0126, reference compound], which “effect on Isx-induced acetylation of H4” value [1] is on record?
The value was “inhibited”.

And the “effect on acetylation of H3” value [1]?
The value was “little effect”.

And the “effect on the Isx-induced increase in HAT activity” value [2]?
Its value is “inhibited”.

For `COC[C@H]1OC(=O)c2coc3c2[C@@]1(C)C1=C(C3=O)[C@@H]2CCC(=O)[C@@]2(C)C[C@H]1OC(C)=O` [wortmannin, reference compound], which “effect on Isx-induced acetylation of H4” value [1] is on record?
The value was “no effect”.

And the “effect on acetylation of H3” value [1]?
Its value is “no effect”.

trichostatin A [reference compound] was tested. Which “HDAC activity in MIN6 cells” value [3] did it give?
Its value is “inhibited”.
